Counter-ions that a name gives are not always drawn.
Experiments:
[1] = tested on: foot mucosa of slugs of the species Arion; assay: Slug mucosal toxicity test of local anaesthetics, Example 4; assay type: in vivo; conditions: in vivo; for % MP, mucus production as % of the body weight at the start of the day before the treatment / Total protein release into PBS: Arion (slug)
Procedure: The following local anaesthetics were used as test substance: procaine HCl, lidocaine HCl, prilocaine HCl, tetracaine HCl and bupivacaine HCl. All test substances were prepared in PBS (pH 7.4) at 1% w/v concentrations. The slugs were daily incubate during 15 min with the test solution during five days. After the incubation period the slugs were placed on 1 ml PBS in a petri dish. The PBS was sampled every hour and refreshed with 1 ml PBS for 3 hours after the treatment.
The total protein released into the PBS was determined.

[2] = tested on: foot mucosa of slugs (species Arion); assay: Slug mucosal toxicity test, Example 1 (15 min daily treatment, five days); assay type: in vivo; conditions: for % WL, reduction in weight (weight loss) caused by the 15 minute treatment as % of initial body weight of the day / % MP, mucus production as % of the body weight at the start of the day before the treatment: 1% w/v in PBS; for % MP, mucus production as % of the body weight at the start of the day before the treatment / ALP released into PBS / LDH released into PBS / Protein released into PBS: 15 min; for ALP released into PBS / LDH released into PBS / Protein released into PBS: total mean of 7 samples/day per slug
From the text: Initially, the slugs are kept on a culture under controlled conditions of temperature and humidity until they have reached a stable body weight. The purpose of achieving a stable body weight is to improve the reproducibility of the results, particularly as the release of substances from the slugs may conveniently be measured in terms of the body weight thereof. The slugs are then isolated from the culture and placed in a vented plastic box lined with moist paper towel and placed at 95% relative humidity at 20° C. seven days before the start of an experiment. The slugs were not bred in any particular way, i.e. they were wild slugs. It is anticipated that even more accurate and reproducible results can be obtained by selective breeding of the slugs, although as shown by the test results this is not a necessary requirement of the present invention to obtain accurate and useful data.
The test procedure is simple and rapid. The chemical substance to be tested is applied directly to the mucosal membrane of a slug, e.g. to the foot, by placing the slug individually in a petri dish containing the test substance. Slugs treated with phosphate buffered saline are used as a negative control. As a positive control slugs treated with a known toxic substance, benzalkonium chloride, were used.
Because the mucosal epithelium of interest is located at the outside of the slug the effect of substances can be easily observed. […] This can also be simply measured by weighing the petri dish before and after the treatment of the slugs with the chemical substance (with the slugs removed in each case). Additionally an indirect response to epithelial damage caused by a chemical substance may be determined by the reduction of the body weight of the slugs due to the leakage of haemolymphatic fluids through the damaged foot surface.
After the treatment the slugs are transferred individually to a fresh petri dish containing phosphate buffered saline. After a suitable exposure time, e.g. 1 hour the phosphate buffered saline is collected and analysed for the presence of proteins and/or enzymes, e.g. lactate dehydrogenase and/or alkaline phosphatase, or other marker substances released from the foot or epithelium of the slug, for example membrane associated components such as phospholipids or cholesterol. This procedure can be repeated after periods of several hours in order to determine the reversibility of the cell damage caused by the test chemical substance. The concentration or amount of the chemical substance to be tested can be changed and the influence of the concentration can be easily examined. The exposure time can also be changed if required. The slugs can be treated during several successive days in order to investigate the subchronical effect of substances on the foot mucosa.
Seven days before the start of the experiment the slugs were isolated in a plastic box lined with moist paper towel and placed at 95% relative humidity at 20° C. As test substances didecanyol-L-α-phosphatidylcholine (DDPC) and sodium deoxycholate (SDC) were selected. Benzalkonium chloride (1% w/v), SDC (1% w/v) and DDPC (1%, w/v) were prepared in phosphate buffered saline (PBS, pH 7.4). […] During the test the slugs are preferably kept in a generally calm and normal state and are not subjected to mechanical vibrations or mechanical or electrical disturbances which may affect mucus production.
The enzymes (lactate dehydrogenase (LDH) and alkaline phosphatase (ALP)) and total protein released into the PBS were determined. The slugs were weighed before and after the incubation period to determine the body weight changes. The mucus production was measured by weighing the petri dishes before and after the treatment with a test substance. The results are shown in Table 1 and shown graphically in FIGS. 1 to 5.

Question: What does the source list for `CCN(CC)CCOC(=O)c1ccc(N)cc1` [Procaine HCl, procaine HCl]?
Answer: % MP, mucus production as % of the body weight at the start of the day before the treatment ([1]; 1 day): 0%; Total protein release into PBS ([1]; 1 day): 204 µg/mL; % MP, mucus production as % of the body weight at the start of the day before the treatment ([1]; 2 day): 0%; Total protein release into PBS ([1]; 2 day): 62 µg/mL; % MP, mucus production as % of the body weight at the start of the day before the treatment ([1]; 3 day): 0%; Total protein release into PBS ([1]; 3 day): 92 µg/mL; % MP, mucus production as % of the body weight at the start of the day before the treatment ([1]; 4 day): 0%; Total protein release into PBS ([1]; 4 day): 54 µg/mL; % MP, mucus production as % of the body weight at the start of the day before the treatment ([1]; 5 day): 0%; Total protein release into PBS ([1]; 5 day): 70 µg/mL; damage (in words) [1]: little or no damage

Question: `CCCCNc1ccc(C(=O)OCCN(C)C)cc1` [Tetracaine HCl, tetracaine HCl] was tested. Which “% MP, mucus production as % of the body weight at the start of the day before the treatment” value (shortened to “% MP, mucus production as %”) ([1]; 1 day) did it give?
Answer: The value was 3.45%.

Question: What about the “Total protein release into PBS” value ([1]; 1 day) of the same molecule?
Answer: The value was 413 µg/mL.

Question: And the “% MP, mucus production as %” value ([1]; 2 day)?
Answer: The value was 2.48%.

Question: What about the “Total protein release into PBS” value ([1]; 2 day) of the same molecule?
Answer: The value was 130 µg/mL.

Question: And the “% MP, mucus production as %” value ([1]; 3 day)?
Answer: Its value is 1.15%.

Question: And the “Total protein release into PBS” value ([1]; 3 day)?
Answer: The value was 120 µg/mL.

Question: What about the “% MP, mucus production as %” value ([1]; 4 day) of the same molecule?
Answer: The value was 1.29%.

Question: And the “Total protein release into PBS” value ([1]; 4 day)?
Answer: The value was 128 µg/mL.

Question: What about the “% MP, mucus production as %” value ([1]; 5 day) of the same molecule?
Answer: The value was 0.65%.

Question: What about the “Total protein release into PBS” value ([1]; 5 day) of the same molecule?
Answer: The value was 149 µg/mL.

Question: And the “mucus production (in words)” value [1]?
Answer: Its value is “increased mucus production”.

Question: And the “protein release (in words)” value [1]?
Answer: The value was “increased protein release”.

Question: `CCCNC(C)C(=O)Nc1ccccc1C` (centres unmarked) [Prilocaine HCl, prilocaine HCl] was tested. Which “% MP, mucus production as %” value ([1]; 1 day) did it give?
Answer: Its value is 0%.

Question: And the “Total protein release into PBS” value ([1]; 1 day)?
Answer: The value was 139 µg/mL.

Question: What about the “% MP, mucus production as %” value ([1]; 2 day) of the same molecule?
Answer: The value was 0%.

Question: What about the “Total protein release into PBS” value ([1]; 2 day) of the same molecule?
Answer: Its value is 62 µg/mL.

Question: And the “% MP, mucus production as %” value ([1]; 3 day)?
Answer: Its value is 0%.

Question: What about the “Total protein release into PBS” value ([1]; 3 day) of the same molecule?
Answer: The value was 72 µg/mL.

Question: What about the “% MP, mucus production as %” value ([1]; 4 day) of the same molecule?
Answer: Its value is 0%.

Question: And the “Total protein release into PBS” value ([1]; 4 day)?
Answer: The value was 65 µg/mL.

Question: And the “% MP, mucus production as %” value ([1]; 5 day)?
Answer: Its value is 0%.

Question: What about the “Total protein release into PBS” value ([1]; 5 day) of the same molecule?
Answer: Its value is 82 µg/mL.

Question: Which results are given for `CCCCCCCCCC(=O)OC[C@H](COP(=O)([O-])OCC[N+](C)(C)C)OC(=O)CCCCCCCCC` [DDPC, didecanyol-L-α-phosphatidylcholine]?
Answer: membrane damage (in words) ([2]; 1% w/v, 15 min daily, five days): little or no damage; % WL, reduction in weight (weight loss) caused by the 15 minute treatment as % of initial body weight of the day ([2]; day 1): 4.84%; % MP, mucus production as % of the body weight at the start of the day before the treatment ([2]; day 1): 0.2%; ALP released into PBS ([2]; day 1, 1% w/v): 9.43 U/L; LDH released into PBS ([2]; day 1, 1% w/v): 9.51 U/L; Protein released into PBS ([2]; day 1, 1% w/v): 12.43 μg/30 μL; % WL, reduction in weight (weight loss) caused by the 15 minute treatment as % of initial body weight of the day ([2]; day 2): 1.19%; % MP, mucus production as % of the body weight at the start of the day before the treatment ([2]; day 2): 0%; ALP released into PBS ([2]; day 2, 1% w/v): 21.83 U/L; LDH released into PBS ([2]; day 2, 1% w/v): 14.47 U/L; Protein released into PBS ([2]; day 2, 1% w/v): 3.77 μg/30 μL; % WL, reduction in weight (weight loss) caused by the 15 minute treatment as % of initial body weight of the day ([2]; day 3): 1.15%; % MP, mucus production as % of the body weight at the start of the day before the treatment ([2]; day 3): 0%; ALP released into PBS ([2]; day 3, 1% w/v): 13.82 U/L; LDH released into PBS ([2]; day 3, 1% w/v): 23.36 U/L; Protein released into PBS ([2]; day 3, 1% w/v): 6.41 μg/30 μL; % WL, reduction in weight (weight loss) caused by the 15 minute treatment as % of initial body weight of the day ([2]; day 4): 1.39%; % MP, mucus production as % of the body weight at the start of the day before the treatment ([2]; day 4): 0%; ALP released into PBS ([2]; day 4, 1% w/v): 4.55 U/L; LDH released into PBS ([2]; day 4, 1% w/v): 19.07 U/L; Protein released into PBS ([2]; day 4, 1% w/v): 4.98 μg/30 μL; % WL, reduction in weight (weight loss) caused by the 15 minute treatment as % of initial body weight of the day ([2]; day 5): 1.14%; % MP, mucus production as % of the body weight at the start of the day before the treatment ([2]; day 5): 0%; ALP released into PBS ([2]; day 5, 1% w/v): 12.42 U/L; LDH released into PBS ([2]; day 5, 1% w/v): 28.32 U/L; Protein released into PBS ([2]; day 5, 1% w/v): 2.40 μg/30 μL

Source: patent US6436630B1, “Method for testing the toxicity of chemical substances using gastropods” (priority 1998, dated 2002)
